The text below walks through data of patent US4365989A, “2-Thiocyanomethylthio-4,4-dialkyl-5-substituted-thiazoline fungicides” (Chevron Research Company, priority 1982, dated 1982).

The subject of one assay is Plasmopara viticola. Put plainly: Grape Downy Mildew control, detached grape leaves. The format is in vivo. The settings on record: in Vitis vinifera, Vitis vinifera Emperor detached leaves, read-out: % Control Grape D.M. As to the method:
The compounds of the invention were tested for the control of the grape downy mildew organism Plasmopara viticola. Detached leaves, between 70 and 85 mm in diameter, of 7-week old Vitis vinifera cultivar Emperor grape seedlings were used as hosts. The leaves were sprayed with a 250 ppm solution of the test compound in acetone. The sprayed leaves were dried, inoculated with a spore suspension of the organism, placed in a humid environmental chamber and incubated at 66° to 68° F. and about 100% relative humidity. After incubation for two days, the plants were then held in a greenhouse seven to nine days; then the amount of disease control was determined. The percent disease control provided by a given gest compound was based on the percent disease reduction relative to untreated check plants.

Another assay has as its system Phytophthora infestans. Put plainly: whole plant or invertebrate. It is filed as in vivo. Particulars: in Solanum lycopersicum, read-out: % Control Tom. L. Bl.
Assay [1] deals with Alternaria solani conidia. Put plainly: Tomato Early Blight control. It is filed as in vivo. Particulars: 250 ppm; tomato Bonny Best seedlings. The protocol:
Compounds of the invention were tested for the control of the tomato Early Blight organism, Alternaria solani conidia. Tomato (variety Bonny Best) seedlings of 6 to 7 weeks old were used. The tomato plants were sprayed with a 250 ppm solution of the test compound in an acetone-and-water solution containing a small amount of a nonionic emulsifier. The sprayed plants were inoculated one day later with the organism, placed in the environmental chamber and incubated at 66° to 68° F. and 100% relative humidity for 24 hours. Following the incubation, the plants were maintained in a greenhouse for about 12 days. Percent diseases control was based on the percent disease development on untreated check plants.

The test system of a further assay is Pythium Ultimum. The assay can be described thus: Mycelial inhibition, Pythium. It is filed as cell-based. Particulars: Globisporangium ultimum, 24 hours, relative to standard DIFOLATAN
As to the method:
A number of the compounds of the present invention were evaluated for in-vitro fungicidal effectiveness by means of a mycelial inhibition test. This test is designed to measure the fungitoxic activity of fungicidal chemicals in terms of their degree of inhibition of mycelium growth. Each compound to be tested was dissolved in acetone to 500 ppm concentration. Paper strips were infused with the particular mycelium growth by covering the paper with a potato dextrose broth culture of mycelial suspension. The papers were then placed on potato dextrose agar plates and sprayed by means of a microsprayer with the fungicidal solution. The treated paper strips were incubated at 25° C. and the data is taken after 24 hours. Fungicidal activities are measured by a zone of inhibited mycelial growth from the center of the paper strip. The effectiveness of the compounds tested for fungicidal activity is reported in Table IIa for those compounds which were effective in inhibiting mycelial growth. The activity is reported in terms of [formula]

Assay [2] concerns Mustard (Brassica arvensis). Put plainly: Pre-emergent herbicidal test, Mustard. The format is in vivo. The settings on record: 504 h, pre-emergence, 33 micrograms/cm^2, 3 weeks. As to the method: (§1) An acetone solution of the test compound was prepared by mixing 750 mg of the compound, 220 mg of a nonionic surfactant and 25 ml of acetone. This solution was added to approximately 125 ml of water containing 156 mg of surfactant.
(§2) Seeds of the test vegetation were planted in a pot of […] and the test solution was sprayed uniformly onto the soil surface at a dose of 33 micrograms/cm^2. The pot was watered and placed in a greenhouse. […] At the end of this period, the herbicidal effectiveness of the compound was rated based on the physiological observations. A 0-to-100 scale was used, 0 representing no phytotoxicity, 100 representing complete kill.

Assay [3] deals with Mustard (Brassica arvensis). Put plainly: Post-emergent herbicidal test, Mustard. Particulars: 504 h, post-emergence, 33 micrograms/cm^2, 3 weeks. The format is in vivo.
Assay [4] deals with Watergrass (Ethinochloa crusgalli). Put plainly: Pre-emergent herbicidal test, Watergrass. The format is in vivo. Particulars: 504 h; pre-emergence; 33 micrograms/cm^2; 3 weeks. The protocol: as §1, §2
For assay [5] the test system is unchanged. Put plainly: Post-emergent herbicidal test, Watergrass. The format is in vivo. The settings on record: 504 h; post-emergence; 33 micrograms/cm^2; 3 weeks.
In another assay the test system is Septoria apii. The format is in vivo. Particulars: 250 ppm; celery (Utah) plants.
The subject of the next assay is Piricularia oryzae. The format is in vivo. Particulars: 625 ppm; rice seedlings Calrose M-9.

The inhibition is the drop in the measured response relative to a control, in per cent. For the compound `C=C1SC(SCSC#N)=NC12CCCCC2` [Compound 8], the pest or weed control at 250 ppm in the assay with Plasmopara viticola is 100%; in the assay with Phytophthora infestans, 29%. Further, the “% Control Tom. E. Bl.” value in assay [1] turned out to be 0%. The compound also showed an inhibition at 500 ppm in the assay on Pythium Ultimum of 0%. The pest or weed control at 33 µg/cm2 in assay [2] was determined as 0%; in [3], 25%; in [4], 0%; in assay [5] it was 38%.

On to `C=C1SC(SCSC#N)=NC1(CC)CC` [Compound 6, 2-thiocyanomethylthio-4,4-diethyl-5-methylenethiazoline], for which the pest or weed control at 250 ppm in the assay on Plasmopara viticola and in the assay on Phytophthora infestans was 0% in each case. In addition, the “% Control Cel. L. Bl.” value with Septoria apii turned out to be 0%. For the same compound, in assay [1], the “% Control Tom. E. Bl.” value is 0%. For the same compound, testing at 500 ppm in the assay on Pythium Ultimum gave an inhibition of 31%. For the same compound, the pest or weed control at 33 µg/cm2 came to 58% in assay [2], 35% in assay [3], 0% in assay [4] and 35% in [5].

With `CCC1(CC)N=C(SCSC#N)SC1=CBr` [Compound 5, 2-thiocyanomethylthio-4,4-diethyl-5-bromo-methylenethiazoline], the pest or weed control at 250 ppm was 100% in the assay on Plasmopara viticola and 20% in the assay with Phytophthora infestans. In addition, the “% Control Cel. L. Bl.” value in the assay with Septoria apii worked out at 96%. Moreover, the “% Control Tom. E. Bl.” value in assay [1] was 0%. In addition, the “% Control Rice Blast” value in the assay with Piricularia oryzae is listed as 90%. The inhibition at 500 ppm with Pythium Ultimum is 0%. The pest or weed control at 33 µg/cm2 in assay [2] was determined as 0%; in assay [3], 35%; in [4], 0%; in assay [5] it was 58%.

Take `C=C1SC(SCSC#N)=NC1(C)C` [Compound 7, 2-Thiocyanomethylthio-4,4-dimethyl-5-methylenethiazoline]: the pest or weed control at 250 ppm with Plasmopara viticola is 50%; in the assay with Phytophthora infestans, 75%. For the same compound, the “% Control Tom. E. Bl.” value in [1] is given as 71%. The same compound had an inhibition at 500 ppm in the assay on Pythium Ultimum of 55%. Moreover, the pest or weed control at 33 µg/cm2 worked out at 0% in assay [2], 50% in assay [3], 0% in assay [4] and 22% in assay [5].

Take `CC1(C)N=C(SCSC#N)SC1=C(Cl)Cl` [Compound 2, 2-thiocyanomethylthio-4,4-dimethyl-5-dichloromethylenethiazoline]: the pest or weed control at 250 ppm with Plasmopara viticola turned out to be 88%; in the assay with Phytophthora infestans, 0%. Besides, the “% Control Cel. L. Bl.” value in the assay with Septoria apii was 35%. Besides, the “% Control Tom. E. Bl.” value in assay [1] is 67%. The pest or weed control at 33 µg/cm2 in assay [2] came out at 0%; in [3], 63%; in [4] it was 0%; in assay [5], 45%.

Turning to `CC1(C)N=C(SCSC#N)SC1=CSc1ccc(Cl)cc1` [Compound 1, 2-thiocyanomethylthio-4,4-dimethyl-5-(4-chlorophenylthio)methylenethiazoline], the pest or weed control at 250 ppm was determined as 100% with Plasmopara viticola and 21% in the assay on Phytophthora infestans. Moreover, the “% Control Cel. L. Bl.” value in the assay with Septoria apii came out at 70%. In addition, the “% Control Tom. E. Bl.” value in assay [1] was 47%. Further, the pest or weed control at 33 µg/cm2 in assay [2], in assay [3], in assay [4] and in [5] was 0% throughout.
